Reference: PubChem BioAssay (NCI)
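The concentration for 50% growth inhibition is given as GI50. TGI is the concentration that stops growth completely.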

Assays:
Assay in all cases: NCI-60 cell line screen, 384-well format
786-0 renal = system: 786-0 renal
A498 renal = system: A498 renal
A549 NSCLC = system: A549 NSCLC
ACHN renal = system: ACHN renal
BT-549 breast = system: BT-549 breast
COLO 205 colon = system: COLO 205 colon
HCC-2998 colon = system: HCC-2998 colon
HCT-116 colon = system: HCT-116 colon
HCT-15 colon = system: HCT-15 colon
HOP-62 NSCLC = system: HOP-62 NSCLC
HOP-92 NSCLC = system: HOP-92 NSCLC
HS 578T breast = system: HS 578T breast
HT29 colon = system: HT29 colon
IGROV1 ovarian = system: IGROV1 ovarian
K-562 leukemia = system: K-562 leukemia
LOX IMVI melanoma = system: LOX IMVI melanoma
M14 melanoma = system: M14 melanoma
MALME-3M melanoma = system: MALME-3M melanoma
MCF7 breast = system: MCF7 breast
MDA-MB-231 breast = system: MDA-MB-231 breast
MDA-MB-435 melanoma = system: MDA-MB-435 melanoma
NCI-H23 lung = system: NCI-H23 lung
NCI-H322M lung = system: NCI-H322M lung
NCI-H522 lung = system: NCI-H522 lung
NCI/ADR-RES ovarian = system: NCI/ADR-RES ovarian
OVCAR-3 ovarian = system: OVCAR-3 ovarian
OVCAR-4 ovarian = system: OVCAR-4 ovarian
OVCAR-5 ovarian = system: OVCAR-5 ovarian
PC-3 prostate = system: PC-3 prostate
RPMI-8226 leukemia = system: RPMI-8226 leukemia
SF-268 CNS = system: SF-268 CNS
SF-295 CNS = system: SF-295 CNS
SF-539 CNS = system: SF-539 CNS
SK-MEL-2 melanoma = system: SK-MEL-2 melanoma
SK-MEL-28 melanoma = system: SK-MEL-28 melanoma
SK-MEL-5 melanoma = system: SK-MEL-5 melanoma
SK-OV-3 ovarian = system: SK-OV-3 ovarian
SN12C renal = system: SN12C renal
SNB-75 CNS = system: SNB-75 CNS
SR leukemia = system: SR leukemia
SW-620 colon = system: SW-620 colon
T-47D breast = system: T-47D breast
TK-10 renal = system: TK-10 renal
U251 glioblastoma = system: U251 glioblastoma
UACC-257 melanoma = system: UACC-257 melanoma
UACC-62 melanoma = system: UACC-62 melanoma
UO-31 renal = system: UO-31 renal

CNC(=O)c1cc(Oc2ccc(NC(=O)Nc3ccc(Cl)c(C(F)(F)F)c3)cc2)ccn1
GI50 ([…]-0 renal): 1.89 µM
TGI (786-0 renal): 3.7 µM
GI50 (A498 renal): 2.37 µM
TGI (A498 renal): 4.74 µM
GI50 (A549 NSCLC): 2.95 µM
TGI (A549 NSCLC): 8.89 µM
GI50 (ACHN renal): 2.71 µM
TGI (ACHN renal): 6.37 µM
GI50 (BT-549 breast): 2.29 µM
TGI (BT-549 breast): 4.04 µM
GI50 (COLO 205 colon): 2.19 µM
TGI (COLO 205 colon): 4.66 µM
GI50 (HCC-2998 colon): 2.13 µM
TGI (HCC-2998 colon): 3.86 µM
GI50 (HCT-116 colon): 1.65 µM
TGI (HCT-116 colon): 4.14 µM
GI50 (HCT-15 colon): 1.92 µM
TGI (HCT-15 colon): 4.03 µM
GI50 (HOP-62 NSCLC): 1.84 µM
TGI (HOP-62 NSCLC): 3.42 µM
GI50 (HOP-92 NSCLC): 3 µM
TGI (HOP-92 NSCLC): 7.6 µM
GI50 (HS 578T breast): 1.78 µM
TGI (HS 578T breast): 3.69 µM
GI50 (HT29 colon): 2.35 µM
TGI (HT29 colon): 5.96 µM
GI50 (IGROV1 ovarian): 2.46 µM
TGI (IGROV1 ovarian): 5.91 µM
GI50 (K-562 leukemia): 1.26 µM
TGI (K-562 leukemia): 2.55 µM
GI50 (LOX IMVI melanoma): 2.19 µM
TGI (LOX IMVI melanoma): 4.56 µM
GI50 (M14 melanoma): 2.48 µM
TGI (M14 melanoma): 5.22 µM
GI50 (MALME-3M melanoma): 2.01 µM
TGI (MALME-3M melanoma): 4.12 µM
GI50 (MCF7 breast): 2.14 µM
TGI (MCF7 breast): 5 µM
GI50 (MDA-MB-231 breast): 1.82 µM
TGI (MDA-MB-231 breast): 3.47 µM
GI50 (MDA-MB-435 melanoma): 2.57 µM
TGI (MDA-MB-435 melanoma): 4.98 µM
GI50 (NCI-H23 lung): 1.56 µM
TGI (NCI-H23 lung): 3.65 µM
GI50 (NCI-H322M lung): 2.61 µM
TGI (NCI-H322M lung): 5.16 µM
GI50 (NCI-H522 lung): 2.04 µM
TGI (NCI-H522 lung): 4.71 µM
GI50 (NCI/ADR-RES ovarian): 2.12 µM
TGI (NCI/ADR-RES ovarian): 4.39 µM
GI50 (OVCAR-3 ovarian): 2.28 µM
TGI (OVCAR-3 ovarian): 4.38 µM
GI50 (OVCAR-4 ovarian): 3.59 µM
TGI (OVCAR-4 ovarian): 6.84 µM
GI50 (OVCAR-5 ovarian): 2.69 µM
TGI (OVCAR-5 ovarian): 6.59 µM
GI50 (PC-3 prostate): 2.71 µM
TGI (PC-3 prostate): 5.91 µM
GI50 (RPMI-8226 leukemia): 1.48 µM
TGI (RPMI-8226 leukemia): 2.82 µM
GI50 (SF-268 CNS): 2.22 µM
TGI (SF-268 CNS): 4.71 µM
GI50 (SF-295 CNS): 2.07 µM
TGI (SF-295 CNS): 4.2 µM
GI50 (SF-539 CNS): 1.69 µM
TGI (SF-539 CNS): 3.54 µM
GI50 (SK-MEL-2 melanoma): 2.05 µM
TGI (SK-MEL-2 melanoma): 3.49 µM
GI50 (SK-MEL-28 melanoma): 2.15 µM
TGI (SK-MEL-28 melanoma): 4.34 µM
GI50 (SK-MEL-5 melanoma): 0.842 µM
TGI (SK-MEL-5 melanoma): 2.44 µM
GI50 (SK-OV-3 ovarian): 3.93 µM
TGI (SK-OV-3 ovarian): 10.4 µM
GI50 (SN12C renal): 2.47 µM
TGI (SN12C renal): 5.66 µM
GI50 (SNB-75 CNS): 3.21 µM
TGI (SNB-75 CNS): 5.92 µM
GI50 (SR leukemia): 2.1 µM
TGI (SR leukemia): 3.55 µM
GI50 (SW-620 colon): 2.17 µM
TGI (SW-620 colon): 4.54 µM
GI50 (T-47D breast): 1.94 µM
TGI (T-47D breast): 5.95 µM
GI50 (TK-10 renal): 5.09 µM
TGI (TK-10 renal): 17.7 µM
GI50 (U251 glioblastoma): 2 µM
TGI (U251 glioblastoma): 3.74 µM
GI50 (UACC-257 melanoma): 2.32 µM
TGI (UACC-257 melanoma): 4.62 µM
GI50 (UACC-62 melanoma): 2.08 µM
TGI (UACC-62 melanoma): 4.06 µM
GI50 (UO-31 renal): 0.748 µM
TGI (UO-31 renal): 1.44 µM
